Measured values: PMC9776540, “Therapeutic Potential of a Water-Soluble Silver-Diclofenac Coordination Polymer on 3D Pancreatic Cancer Spheroids” (Journal of Medicinal Chemistry, 2022)

What was measured:
A549 [1] = assay: MTT cytotoxicity assay (IC50); format: cell-based, human; conditions: A549, after 72 h incubation, MTT, vs untreated control cells; read-out: IC50
Description: (§1) MCF7 cell line (human breast adenocarcinoma, morphology: epithelial-like, ATCC: HTB-22), A549 cell […]
(§2) keratinocyte, morphology: epidermal, CSL Cell Lines Service GmbH); were cultured in Dulbecco’s Modified Eagle’s Medium (DMEM, Corning) with phenol red, supplemented with 10% fetal bovine serum (FBS) and with 1% streptomycin/penicillin. […]
(§3) from metastatic site: brain, ATCC: HTB-81) and MCR-5 cell line (primary line of human pulmonary […]
(§4) 10% fetal bovine serum (FBS). Cultures were incubated at 37 °C under a humidified atmosphere containing 5% CO2. Cells were transferred using a solution containing 0.05% trypsin and 0.5 mM EDTA.
(§5) All media and other ingredients were purchased from ALAB, Poland.
(§6) Cytotoxicity was assessed by MTT assay performed according the protocols described elsewhere.S1 In brief, 1×10^4 cells per well, seeded in 96-well flat bottom microtiter plate, were incubated with the tested compounds (in the appropriate media) at various range of concentrations for 24 h. After that time, solutions of compounds were washed out, cells were washed three times with PBS and fresh medium was applied. After next 72 h cell viability was determined using the Hill equation (Origin 9.0) with regard to the untreated cells (control), where y0 – untreated cell control (which was set to 100% viability), y100 – a lysis control (where the cells were treated with 0.5% triton X-100 was set to 0% […]
(§7) [c] at which the viability of the cells reaches 50%, H – the Hill coefficient (describing cooperativity):
(§8) Each compound concentration was tested in five replicates and repeated at least three times.
(§9) Determined values of IC50 are given as mean + S.D. (Standard Deviation).
(§10) Cisplatin was tested as a reference anticancer drug. […]

MRC5 = assay: MTT cytotoxicity assay (IC50); format: cell-based, human; conditions: MRC5 normal cells, after 72 h incubation, MTT, vs untreated control cells; read-out: IC50
Description: as §1, §2, §3, §4, §5, §6, §7, §8, §9, §10

MCF7 = assay: MTT cytotoxicity assay (IC50); format: cell-based, human; conditions: MCF7, after 72 h incubation, MTT, vs untreated control cells; read-out: IC50
Description: as §1, §2, §3, §4, §5, §6, §7, §8, §9, §10

DU-145 [2] = assay: MTT cytotoxicity assay (IC50); format: cell-based, human; conditions: DU-145, after 72 h incubation, MTT, vs untreated control cells; read-out: IC50
Description: as §1, §2, §3, §4, §5, §6, §7, §8, §9, §10

PANC-1 [3] = assay: MTT cytotoxicity assay (IC50); format: cell-based, human; conditions: PANC-1, after 72 h incubation, MTT, vs untreated control cells; read-out: IC50
Description: as §1, §2, §3, §4, §5, §6, §7, §8, §9, §10

HaCat [4] = assay: MTT cytotoxicity assay (IC50); format: cell-based, human; conditions: HaCat normal cells, after 72 h incubation, MTT, vs untreated control cells; read-out: IC50
Description: as §1, §2, §3, §4, §5, §6, §7, §8, §9, §10

human cell lines = conditions: up to a concentration of 100 μM
Description: as §1, §2, §3, §4, §5
as §6, with “After that time, solutions of compounds were washed out, cells were washed three times with PBS and fresh medium was applied.” left out
Determined values of IC50 are given as mean + S.D. (Standard Deviation). […]

A549 [5] = assay: MTT survival test, surviving fraction (Table S3); format: cell-based, human
Description: (§11) 24, and 72 h. After each incubation time, the cells were washed with PBS. Then, fresh medium (supplemented with 10% FSB) was added, and the cells were incubated under standard conditions for another 24 h (6h + 24h, 24h + 24h, 72h + 24h). After this time, the MTT survival test was done. Surviving fraction given in % was estimated with relation to untreated cells. In the case of 6h + 24h and 24h + 24h approaches, the cells were seeded at 10 000 cells per well, while in the case of 72h + 24h at […]

MCF-7 = assay: MTT survival test, surviving fraction (Table S3); format: cell-based, human
Description: as §11

DU-145 [6] = assay: MTT survival test, surviving fraction (Table S3); format: cell-based, human
Description: as §11

PANC-1 [7] = assay: MTT survival test, surviving fraction (Table S3); format: cell-based, human
Description: as §11

HaCat [8] = assay: MTT survival test, surviving fraction (Table S3); format: cell-based, human
Description: as §11

With `N.N.[Cl][Pt][Cl]` [cisplatin] the IC50 (A549 [1]) was > 100 µM, the IC50 (MRC5) was 31.5 ± 4.1 µM and the IC50 (MCF7) was 50.9 ± 7.6 µM. The IC50 (DU-145 [2]) was > 100 µM, the IC50 (PANC-1 [3]) was 12.5 ± 1.3 µM and the IC50 (HaCat [4]) was 26.4 ± 2.7 µM.
With `O=[N+]([O-])[O-].[Ag+]` [AgNO3, silver(I) nitrate] the “cytotoxic effect of free Ag(I) salt” value (human cell lines) was “does not cause significant toxic effects”, the surviving fraction (A549 [5]; A549, 6h + 24h, dil. 10 000x (stocks: diclofenac 0.918, PTA 0.483, AgNO3 0.326 mg/mL)) was 68.1 ± 6.2% and the surviving fraction (A549 [5]; A549, 6h + 24h, dil. 1000x (stocks: diclofenac 0.918, PTA 0.483, AgNO3 0.326 mg/mL)) was 48.9 ± 6.5%. The surviving fraction (A549 [5]; A549, 24h + 24h, dil. 10 000x (stocks: diclofenac 0.918, PTA 0.483, AgNO3 0.326 mg/mL)) was 57.4 ± 3.8%, the surviving fraction (A549 [5]; A549, 24h + 24h, dil. 1000x (stocks: diclofenac 0.918, PTA 0.483, AgNO3 0.326 mg/mL)) was 31.2 ± 5.5% and the surviving fraction (A549 [5]; A549, 72h + 24h, dil. 10 000x (stocks: diclofenac 0.918, PTA 0.483, AgNO3 0.326 mg/mL)) was 55.8 ± 8.1%. It also gave a surviving fraction (A549 [5]; A549, 72h + 24h, dil. 1000x (stocks: diclofenac 0.918, PTA 0.483, AgNO3 0.326 mg/mL)) of 34.1 ± 5.3%, a surviving fraction (MCF-7; MCF-7, 6h + 24h, dil. 10 000x (stocks: diclofenac 0.918, PTA 0.483, AgNO3 0.326 mg/mL)) of 59.2 ± 8.2% and a surviving fraction (MCF-7; MCF-7, 6h + 24h, dil. 1000x (stocks: diclofenac 0.918, PTA 0.483, AgNO3 0.326 mg/mL)) of 62.7 ± 6.3%. It also gave a surviving fraction (MCF-7; MCF-7, 24h + 24h, dil. 10 000x (stocks: diclofenac 0.918, PTA 0.483, AgNO3 0.326 mg/mL)) of 62.1 ± 5.5%, a surviving fraction (MCF-7; MCF-7, 24h + 24h, dil. 1000x (stocks: diclofenac 0.918, PTA 0.483, AgNO3 0.326 mg/mL)) of 38.5 ± 7.3% and a surviving fraction (MCF-7; MCF-7, 72h + 24h, dil. 10 000x (stocks: diclofenac 0.918, PTA 0.483, AgNO3 0.326 mg/mL)) of 56.8 ± 6.2%. It also gave a surviving fraction (MCF-7; MCF-7, 72h + 24h, dil. 1000x (stocks: diclofenac 0.918, PTA 0.483, AgNO3 0.326 mg/mL)) of 36.0 ± 8.4%, a surviving fraction (DU-145 [6]; Du-145, 6h + 24h, dil. 10 000x (stocks: diclofenac 0.918, PTA 0.483, AgNO3 0.326 mg/mL)) of 74.5 ± 8.8% and a surviving fraction (DU-145 [6]; Du-145, 6h + 24h, dil. 1000x (stocks: diclofenac 0.918, PTA 0.483, AgNO3 0.326 mg/mL)) of 62.87 ± 5.9%. The surviving fraction (DU-145 [6]; Du-145, 24h + 24h, dil. 10 000x (stocks: diclofenac 0.918, PTA 0.483, AgNO3 0.326 mg/mL)) was 58.8 ± 7.3%, the surviving fraction (DU-145 [6]; Du-145, 24h + 24h, dil. 1000x (stocks: diclofenac 0.918, PTA 0.483, AgNO3 0.326 mg/mL)) was 36.7 ± 7.1% and the surviving fraction (DU-145 [6]; Du-145, 72h + 24h, dil. 10 000x (stocks: diclofenac 0.918, PTA 0.483, AgNO3 0.326 mg/mL)) was 56.1 ± 5.9%. It also gave a surviving fraction (DU-145 [6]; Du-145, 72h + 24h, dil. 1000x (stocks: diclofenac 0.918, PTA 0.483, AgNO3 0.326 mg/mL)) of 42.8 ± 5.9%, a surviving fraction (PANC-1 [7]; PANC-1, 6h + 24h, dil. 10 000x (stocks: diclofenac 0.918, PTA 0.483, AgNO3 0.326 mg/mL)) of 76.2 ± 7.4% and a surviving fraction (PANC-1 [7]; PANC-1, 6h + 24h, dil. 1000x (stocks: diclofenac 0.918, PTA 0.483, AgNO3 0.326 mg/mL)) of 65.89 ± 4.6%. The surviving fraction (PANC-1 [7]; PANC-1, 24h + 24h, dil. 10 000x (stocks: diclofenac 0.918, PTA 0.483, AgNO3 0.326 mg/mL)) was 65.8 ± 6.6%, the surviving fraction (PANC-1 [7]; PANC-1, 24h + 24h, dil. 1000x (stocks: diclofenac 0.918, PTA 0.483, AgNO3 0.326 mg/mL)) was 44.2 ± 9.2% and the surviving fraction (PANC-1 [7]; PANC-1, 72h + 24h, dil. 10 000x (stocks: diclofenac 0.918, PTA 0.483, AgNO3 0.326 mg/mL)) was 65.8 ± 6.1%. For the same compound, the surviving fraction (PANC-1 [7]; PANC-1, 72h + 24h, dil. 1000x (stocks: diclofenac 0.918, PTA 0.483, AgNO3 0.326 mg/mL)) was 55.4 ± 6.7%, the surviving fraction (HaCat [8]; 6h + 24h, dil. 10 000x (stocks: diclofenac 0.918, PTA 0.483, AgNO3 0.326 mg/mL)) was 88.1 ± 4.2% and the surviving fraction (HaCat [8]; 6h + 24h, dil. 1000x (stocks: diclofenac 0.918, PTA 0.483, AgNO3 0.326 mg/mL)) was 76.7 ± 6.8%. For the same compound, the surviving fraction (HaCat [8]; 24h + 24h, dil. 10 000x (stocks: diclofenac 0.918, PTA 0.483, AgNO3 0.326 mg/mL)) was 72.7 ± 8.1%, the surviving fraction (HaCat [8]; 24h + 24h, dil. 1000x (stocks: diclofenac 0.918, PTA 0.483, AgNO3 0.326 mg/mL)) was 41.6 ± 6.9% and the surviving fraction (HaCat [8]; 72h + 24h, dil. 10 000x (stocks: diclofenac 0.918, PTA 0.483, AgNO3 0.326 mg/mL)) was 70.5 ± 5.8%. It also gave a surviving fraction (HaCat [8]; 72h + 24h, dil. 1000x (stocks: diclofenac 0.918, PTA 0.483, AgNO3 0.326 mg/mL)) of 65.2 ± 6.3%.
